Assays:
[1] = biological target: T1, 5-hydroxytryptamine receptor 1B (Homo sapiens, UniProt P28222); test: Displacement of [3H]-LSD from human 5-HT1B receptor expressed in baculovirus infected Sf9 cells
[2] = biological target: T2, 5-hydroxytryptamine receptor 2B (Homo sapiens, UniProt P41595); test: Displacement of [3H]-LSD from human 5-HT2B receptor expressed in baculovirus infected Sf9 cells
[3] = biological target: T3, 5-hydroxytryptamine receptor 1D (Homo sapiens, UniProt P28221); test: Binding affinity to 5-HT1D receptor (unknown origin) by radioligand binding assay
[4] = biological target: T4, 5-hydroxytryptamine receptor 1E (Homo sapiens, UniProt P28566); test: Binding affinity to 5-HT1E receptor (unknown origin) by radioligand binding assay
[5] = biological target: T5, 5-hydroxytryptamine receptor 2A (Homo sapiens, UniProt P28223); test: Binding affinity to 5-HT2A receptor (unknown origin) by radioligand binding assay
[6] = biological target: T6, 5-hydroxytryptamine receptor 2C (Homo sapiens, UniProt P28335); test: Binding affinity to 5-HT2C receptor (unknown origin) by radioligand binding assay
T6 sequence (P28335 whole entry): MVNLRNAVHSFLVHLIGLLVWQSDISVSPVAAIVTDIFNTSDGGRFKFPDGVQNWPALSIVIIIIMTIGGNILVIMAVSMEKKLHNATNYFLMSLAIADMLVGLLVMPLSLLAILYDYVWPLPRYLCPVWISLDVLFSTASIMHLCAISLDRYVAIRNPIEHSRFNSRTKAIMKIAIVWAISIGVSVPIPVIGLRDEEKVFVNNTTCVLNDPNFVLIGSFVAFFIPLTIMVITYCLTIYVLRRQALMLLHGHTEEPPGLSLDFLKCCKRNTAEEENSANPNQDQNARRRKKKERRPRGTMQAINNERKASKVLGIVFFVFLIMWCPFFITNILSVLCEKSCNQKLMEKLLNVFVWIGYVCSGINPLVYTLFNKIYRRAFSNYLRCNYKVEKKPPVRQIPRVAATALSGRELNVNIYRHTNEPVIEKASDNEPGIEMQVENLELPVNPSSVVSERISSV

[7] = biological target: T7, 5-hydroxytryptamine receptor 3A (Homo sapiens, UniProt P46098); test: Binding affinity to 5-HT3 receptor (unknown origin) by radioligand binding assay
T7 sequence (P46098 whole entry): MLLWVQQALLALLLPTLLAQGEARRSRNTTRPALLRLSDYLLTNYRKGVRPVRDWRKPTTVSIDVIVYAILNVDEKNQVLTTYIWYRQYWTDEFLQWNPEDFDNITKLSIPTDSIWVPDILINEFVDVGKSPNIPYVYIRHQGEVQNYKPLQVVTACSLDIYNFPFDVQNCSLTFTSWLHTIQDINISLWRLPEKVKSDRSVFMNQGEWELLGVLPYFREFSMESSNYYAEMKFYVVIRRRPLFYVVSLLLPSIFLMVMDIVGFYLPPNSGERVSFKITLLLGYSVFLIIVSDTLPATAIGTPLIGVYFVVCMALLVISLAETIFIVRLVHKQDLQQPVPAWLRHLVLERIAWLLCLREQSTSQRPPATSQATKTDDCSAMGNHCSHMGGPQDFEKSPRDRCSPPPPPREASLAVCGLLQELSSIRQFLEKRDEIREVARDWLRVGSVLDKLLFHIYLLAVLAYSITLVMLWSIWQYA

[8] = biological target: T8, 5-hydroxytryptamine receptor 5A (Homo sapiens, UniProt P47898); test: Binding affinity to 5-HT5A receptor (unknown origin) by radioligand binding assay
[9] = biological target: T9, 5-hydroxytryptamine receptor 6 (Homo sapiens, UniProt P50406); test: Binding affinity to 5-HT6 receptor (unknown origin) by radioligand binding assay
[10] = biological target: T10, 5-hydroxytryptamine receptor 7 (Homo sapiens, UniProt P34969); test: Binding affinity to 5-HT7A receptor (unknown origin) by radioligand binding assay
[11] = biological target: T2, 5-hydroxytryptamine receptor 2B; test: Displacement of [3H]-LSD from human 5-HT2B receptor expressed in HEK cells after 90 mins by microbeta scintillation counting analysis; assay type: cell-based
[12] = biological target: T3, 5-hydroxytryptamine receptor 1D; test: Displacement of [3H]5-CT from human 5-HT1D receptor expressed in HEKT cells after 90 mins by microbeta scintillation counting analysis; assay type: cell-based
[13] = biological target: T4, 5-hydroxytryptamine receptor 1E; test: Displacement of [3H]5-HT from human 5-HT1E receptor expressed in HEK cells after 90 mins by microbeta scintillation counting analysis; assay type: cell-based
[14] = biological target: T6, 5-hydroxytryptamine receptor 2C; test: Displacement of [3H]-Mesulergine from human 5-HT2C receptor expressed in HEKT cells after 90 mins by microbeta scintillation counting analysis; assay type: cell-based
[15] = biological target: T7, 5-hydroxytryptamine receptor 3A; test: Displacement of [3H]-GR65630 from human 5-HT3 receptor expressed in HEKT cells after 90 mins by microbeta scintillation counting analysis; assay type: cell-based
[16] = biological target: T8, 5-hydroxytryptamine receptor 5A; test: Displacement of [3H]-LSD from human 5-HT5A receptor expressed in Flp-In CHO cells after 90 mins by microbeta scintillation counting analysis; assay type: cell-based
[17] = biological target: T9, 5-hydroxytryptamine receptor 6; test: Displacement of [3H]-LSD from human 5-HT6 receptor expressed in HEK cells after 90 mins by microbeta scintillation counting analysis; assay type: cell-based
[18] = biological target: T10, 5-hydroxytryptamine receptor 7; test: Displacement of [3H]-LSD from human 5-HT7A receptor expressed in HEK cells after 90 mins by microbeta scintillation counting analysis; assay type: cell-based
[19] = biological target: T2, 5-hydroxytryptamine receptor 2B; test: Antagonist activity at 5-HT2B receptor (unknown origin) by calcium release assay; assay type: functional
[20] = biological target: T10, 5-hydroxytryptamine receptor 7; test: Antagonist activity at 5-HT7A receptor (unknown origin) by Tango assay
[21] = biological target: T11, 5-hydroxytryptamine receptor 1A (Homo sapiens, UniProt P08908); test: Antagonist activity at 5-HT1A receptor (unknown origin) by Tango assay; assay type: functional
T11 sequence (P08908 whole entry): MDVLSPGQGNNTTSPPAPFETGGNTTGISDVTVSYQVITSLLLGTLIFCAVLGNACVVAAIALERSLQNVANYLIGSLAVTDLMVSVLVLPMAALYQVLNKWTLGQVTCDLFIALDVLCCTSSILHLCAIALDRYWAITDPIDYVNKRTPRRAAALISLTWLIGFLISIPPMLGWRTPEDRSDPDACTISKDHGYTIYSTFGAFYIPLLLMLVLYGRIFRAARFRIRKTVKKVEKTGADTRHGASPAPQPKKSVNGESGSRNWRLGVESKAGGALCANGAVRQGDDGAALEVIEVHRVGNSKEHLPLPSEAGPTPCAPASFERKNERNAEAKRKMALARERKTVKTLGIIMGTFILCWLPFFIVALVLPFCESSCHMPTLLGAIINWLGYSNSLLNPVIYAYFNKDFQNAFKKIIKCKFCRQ

[22] = biological target: T1, 5-hydroxytryptamine receptor 1B; test: Displacement of [3H]5-CT from human 5-HT1B receptor expressed in HEK cells after 90 mins by microbeta scintillation counting analysis; assay type: cell-based
[23] = biological target: T5, 5-hydroxytryptamine receptor 2A; test: Displacement of [3H]Ketanserin from 5-HT2A (unknown origin) receptor after 90 mins by microbeta scintillation counting analysis

T1 sequence (P28222 whole entry): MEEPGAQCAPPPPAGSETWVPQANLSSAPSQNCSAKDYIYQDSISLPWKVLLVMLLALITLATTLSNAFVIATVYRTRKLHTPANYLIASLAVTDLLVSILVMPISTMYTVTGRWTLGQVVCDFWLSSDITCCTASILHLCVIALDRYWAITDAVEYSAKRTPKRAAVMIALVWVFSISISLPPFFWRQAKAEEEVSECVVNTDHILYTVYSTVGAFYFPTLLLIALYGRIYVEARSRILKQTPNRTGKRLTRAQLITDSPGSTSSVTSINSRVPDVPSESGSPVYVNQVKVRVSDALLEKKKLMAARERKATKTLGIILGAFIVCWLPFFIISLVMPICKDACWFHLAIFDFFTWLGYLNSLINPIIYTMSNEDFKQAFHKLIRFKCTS
T2 sequence (P41595 whole entry): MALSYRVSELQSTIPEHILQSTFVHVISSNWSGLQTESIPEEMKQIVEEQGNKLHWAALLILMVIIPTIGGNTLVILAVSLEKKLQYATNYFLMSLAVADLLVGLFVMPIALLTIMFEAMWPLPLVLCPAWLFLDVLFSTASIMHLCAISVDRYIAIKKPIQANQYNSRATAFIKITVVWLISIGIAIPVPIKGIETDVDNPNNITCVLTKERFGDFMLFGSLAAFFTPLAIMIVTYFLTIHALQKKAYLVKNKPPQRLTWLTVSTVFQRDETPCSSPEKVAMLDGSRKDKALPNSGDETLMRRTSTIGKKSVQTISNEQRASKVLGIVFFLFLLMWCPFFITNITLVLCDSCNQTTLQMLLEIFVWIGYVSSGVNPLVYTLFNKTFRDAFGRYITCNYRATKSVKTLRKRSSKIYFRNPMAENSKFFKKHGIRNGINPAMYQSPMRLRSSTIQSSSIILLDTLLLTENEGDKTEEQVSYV
T8 sequence (P47898 whole entry): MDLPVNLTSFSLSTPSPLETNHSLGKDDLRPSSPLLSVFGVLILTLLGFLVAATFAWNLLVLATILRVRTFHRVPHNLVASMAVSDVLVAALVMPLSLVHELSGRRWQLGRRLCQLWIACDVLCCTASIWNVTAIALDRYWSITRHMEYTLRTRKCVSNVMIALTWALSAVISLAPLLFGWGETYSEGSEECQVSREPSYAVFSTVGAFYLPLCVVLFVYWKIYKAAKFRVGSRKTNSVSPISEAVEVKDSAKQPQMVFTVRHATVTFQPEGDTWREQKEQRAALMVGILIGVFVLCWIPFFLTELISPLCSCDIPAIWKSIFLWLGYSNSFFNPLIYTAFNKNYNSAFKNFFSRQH
T3 sequence (P28221 whole entry): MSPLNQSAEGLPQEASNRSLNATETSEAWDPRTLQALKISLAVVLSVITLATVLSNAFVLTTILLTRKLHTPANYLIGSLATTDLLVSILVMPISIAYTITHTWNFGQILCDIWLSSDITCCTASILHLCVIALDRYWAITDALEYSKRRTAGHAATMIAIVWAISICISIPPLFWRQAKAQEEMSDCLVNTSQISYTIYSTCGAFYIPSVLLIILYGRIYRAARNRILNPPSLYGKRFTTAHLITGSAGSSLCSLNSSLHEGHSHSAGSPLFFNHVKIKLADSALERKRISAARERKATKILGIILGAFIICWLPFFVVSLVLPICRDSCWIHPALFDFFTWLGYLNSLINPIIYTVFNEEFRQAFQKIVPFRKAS
T4 sequence (P28566 whole entry): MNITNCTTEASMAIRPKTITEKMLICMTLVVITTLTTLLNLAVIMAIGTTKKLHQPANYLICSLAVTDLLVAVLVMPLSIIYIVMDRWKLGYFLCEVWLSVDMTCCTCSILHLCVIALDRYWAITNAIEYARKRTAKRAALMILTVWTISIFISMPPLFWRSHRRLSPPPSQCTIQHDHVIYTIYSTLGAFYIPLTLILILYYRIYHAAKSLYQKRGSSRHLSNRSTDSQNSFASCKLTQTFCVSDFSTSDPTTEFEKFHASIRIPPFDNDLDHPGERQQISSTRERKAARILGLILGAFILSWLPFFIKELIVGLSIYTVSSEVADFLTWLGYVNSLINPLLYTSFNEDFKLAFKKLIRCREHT
T5 sequence (P28223 whole entry): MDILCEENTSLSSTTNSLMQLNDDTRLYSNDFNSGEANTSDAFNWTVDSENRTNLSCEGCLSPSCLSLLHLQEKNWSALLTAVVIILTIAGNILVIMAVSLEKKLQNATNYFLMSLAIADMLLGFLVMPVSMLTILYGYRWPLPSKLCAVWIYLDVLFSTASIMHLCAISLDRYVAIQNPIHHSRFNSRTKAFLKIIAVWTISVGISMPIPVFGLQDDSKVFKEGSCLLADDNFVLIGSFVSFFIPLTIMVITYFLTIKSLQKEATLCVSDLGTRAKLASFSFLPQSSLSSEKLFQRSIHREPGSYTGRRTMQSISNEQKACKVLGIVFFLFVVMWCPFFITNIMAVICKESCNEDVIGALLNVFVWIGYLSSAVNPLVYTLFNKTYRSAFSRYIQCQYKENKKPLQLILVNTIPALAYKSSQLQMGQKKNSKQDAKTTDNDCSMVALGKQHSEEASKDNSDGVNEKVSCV
T10 sequence (P34969 whole entry): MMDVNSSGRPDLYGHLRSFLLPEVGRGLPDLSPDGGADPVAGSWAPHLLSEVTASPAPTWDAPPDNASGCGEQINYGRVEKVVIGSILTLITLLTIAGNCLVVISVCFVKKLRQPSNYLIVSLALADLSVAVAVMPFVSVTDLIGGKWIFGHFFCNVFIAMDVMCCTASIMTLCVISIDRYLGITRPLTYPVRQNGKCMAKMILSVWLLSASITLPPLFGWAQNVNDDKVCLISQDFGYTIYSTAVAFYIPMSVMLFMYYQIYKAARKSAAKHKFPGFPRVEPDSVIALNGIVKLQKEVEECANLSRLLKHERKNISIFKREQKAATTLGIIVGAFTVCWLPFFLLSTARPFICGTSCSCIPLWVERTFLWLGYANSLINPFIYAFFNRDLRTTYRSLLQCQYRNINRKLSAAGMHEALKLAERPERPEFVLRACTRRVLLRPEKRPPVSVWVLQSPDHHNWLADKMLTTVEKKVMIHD
T9 sequence (P50406 whole entry): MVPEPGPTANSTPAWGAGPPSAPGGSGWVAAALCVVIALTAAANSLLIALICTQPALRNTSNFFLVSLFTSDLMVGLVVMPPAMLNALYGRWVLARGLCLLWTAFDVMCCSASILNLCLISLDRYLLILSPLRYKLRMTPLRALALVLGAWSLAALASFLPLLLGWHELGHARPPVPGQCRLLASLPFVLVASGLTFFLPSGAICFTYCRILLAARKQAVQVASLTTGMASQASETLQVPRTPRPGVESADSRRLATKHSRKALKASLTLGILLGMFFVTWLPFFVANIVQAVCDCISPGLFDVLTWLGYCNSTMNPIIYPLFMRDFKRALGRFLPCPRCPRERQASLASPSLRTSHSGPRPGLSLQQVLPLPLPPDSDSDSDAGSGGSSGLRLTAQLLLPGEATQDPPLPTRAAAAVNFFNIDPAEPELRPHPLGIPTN

Row | Structure (SMILES) | Ki [11] [µM] | Ki [12] [µM] | Ki [13] [µM] | Ki [14] [µM] | Ki [15] [µM] | Ki [16] [µM] | Ki [17] [µM] | Ki [18] [µM] | Ki [22] [µM] | Ki [23] [µM] | further results
1 | C[C@@H]1SC(c2ccccc2O)=N[C@H]1[C@@H]1SC[C@](C)(C(=O)O)N1C [WATASEMYCINS A] |  |  |  |  |  |  |  |  |  |  | Ki [1]: > 10 µM; Ki [2]: 4.7 µM; Ki [3]: > 10 µM; Ki [4]: > 10 µM; Ki [5]: > 10 µM; Ki [6]: > 10 µM; Ki [7]: > 10 µM; Ki [8]: > 10 µM; Ki [9]: > 10 µM; Ki [10]: > 10 µM
2 | C[C@@H]1SC(c2ccccc2)=N[C@@H]1Cc1c[nH]cn1 (relative stereo) | 0.69 | 1.6 | 4 | 0.75 | 0.077 | 6.8 | > 10 | 3.3 |  |  | IC50 [19]: > 10 µM; IC50 [20]: > 10 µM; IC50 [21]: > 10 µM
3 | C[C@H]1SC(c2ccccc2O)=N[C@H]1CO | 0.4 |  |  |  |  |  |  |  |  |  | 
4 | C[C@H]1SC(c2ccccc2O)=N[C@@H]1CO (racemic) | 0.62 |  |  | 2.2 |  |  |  |  |  |  | 
5 | C[C@@H]1SC(c2cccs2)=N[C@H]1CO (relative stereo) | 1.4 | > 10 | > 10 | 2.2 | > 10 | > 10 | > 10 | > 10 | > 10 | > 10 | 
6 | O=Cc1csc(-c2ccccc2O)n1 |  |  |  |  |  |  |  |  |  |  | Ki [1]: > 10 µM; Ki [2]: 1.5 µM; Ki [3]: > 10 µM; Ki [4]: > 10 µM; Ki [5]: > 10 µM; Ki [6]: > 10 µM; Ki [7]: > 10 µM; Ki [8]: > 10 µM; Ki [9]: > 10 µM; Ki [10]: > 10 µM
7 | CNc1ccccc1C1=N[C@@H](CO)[C@H](C)S1 (relative stereo) | 1.2 | 8.5 | > 10 | 1.9 | 3.6 | > 10 | > 10 | > 10 | > 10 | > 10 | 
8 | NC(=O)c1csc(-c2ccccc2O)n1 [PULICATINS F] |  |  |  |  |  |  |  |  |  |  | Ki [1]: > 10 µM; Ki [3]: > 10 µM; Ki [4]: > 10 µM; Ki [5]: > 10 µM; Ki [6]: > 10 µM; Ki [7]: > 10 µM; Ki [8]: > 10 µM; Ki [9]: > 10 µM; Ki [10]: > 10 µM
9 | NC(=O)C1CSC(c2ccccc2O)=N1 (racemic) [PULICATINS G] |  |  |  |  |  |  |  |  |  |  | Ki [1]: > 10 µM; Ki [3]: > 10 µM; Ki [4]: > 10 µM; Ki [5]: > 10 µM; Ki [6]: > 10 µM; Ki [7]: > 10 µM; Ki [8]: > 10 µM; Ki [9]: > 10 µM; Ki [10]: > 10 µM
10 | C[C@@H]1SC(c2ccco2)=N[C@H]1CO (relative stereo) | > 10 | > 10 | > 10 | > 10 | > 10 | > 10 | > 10 | > 10 | > 10 | > 10 | 
11 | OC[C@@H]1CSC(c2ccccc2O)=N1 [AERUGINE] |  |  |  |  |  |  |  |  |  |  | Ki [1]: > 10 µM; Ki [3]: > 10 µM; Ki [4]: > 10 µM; Ki [5]: > 10 µM; Ki [6]: > 10 µM; Ki [7]: > 10 µM; Ki [8]: > 10 µM; Ki [9]: > 10 µM; Ki [10]: > 10 µM
12 | C[C@@H]1SC(c2ccsc2)=N[C@H]1CO (relative stereo) | 1.5 | 8.6 | > 10 | > 10 | 6.7 | 8.2 | > 10 | > 10 | > 10 | > 10 | 
13 | C[C@@H]1SC(c2ccccc2O)=N[C@H]1[C@H]1SC[C@](C)(C(=O)O)N1C [WATASEMYCINS B] |  |  |  |  |  |  |  |  |  |  | Ki [1]: > 10 µM; Ki [2]: 3.9 µM; Ki [3]: > 10 µM; Ki [4]: > 10 µM; Ki [5]: > 10 µM; Ki [6]: > 10 µM; Ki [7]: > 10 µM; Ki [8]: > 10 µM; Ki [9]: > 10 µM; Ki [10]: > 10 µM
14 | Oc1ccccc1C1=N[C@@H]2CCC[C@@H]2S1 (racemic) | > 10 | > 10 | > 10 | > 10 | > 10 | > 10 | > 10 | > 10 | > 10 | > 10 | 
15 | C[C@@H]1SC(c2ccc(-c3ccccc3)cc2)=N[C@H]1Cc1c[nH]cn1 (relative stereo) | 1.1 |  |  | 1.4 |  |  |  |  |  | 0.24 | 
16 | CCCCCCCCOc1ccc(C2=N[C@@H](CO)[C@H](C)S2)cc1 (relative stereo) | > 10 | > 10 | > 10 | 3.6 | > 10 | > 10 | > 10 | > 10 | > 10 | 6.9 | IC50 [21]: > 10 µM
17 | C[C@H]1SC(c2ccc(-c3ccccc3)cc2)=N[C@H]1Cc1c[nH]cn1 (relative stereo) | 1.4 |  |  | 2.3 |  |  |  |  |  | 0.31 | 
18 | C[C@@H]1SC(c2cc3ccccc3cc2O)=N[C@H]1CO (relative stereo) | 0.81 | > 10 | > 10 | 2.4 | 1.8 | > 10 | > 10 | > 10 | > 10 | > 10 | 
19 | Oc1ccccc1C1=NC(Cc2c[nH]cn2)CS1 (racemic) | 0.1 | 1.9 | > 10 | > 10 | 0.95 | > 10 | > 10 | 7.4 | > 10 | > 10 | 
20 | C[C@@H]1SC(c2c[nH]c3ccccc23)=N[C@H]1CO (relative stereo) | 2.4 | 2.7 | > 10 | 5.4 | 2.8 | > 10 | > 10 | > 10 | > 10 | > 10 | 
21 | C[C@@H]1SC(c2ccccc2)=N[C@H]1CO (relative stereo) | 3 | 5.3 | > 10 | 35 | 6.7 | > 10 | > 10 | > 10 | > 10 | > 10 | 
22 | COC(=O)[C@H](Cc1cnc[nH]1)NC(=O)[C@@H]1N=C(c2ccccc2O)S[C@@H]1C | 1.4 | 0.53 | 4.6 | 0.88 | 3.1 | > 10 | > 10 | > 10 |  |  | IC50 [19]: > 10 µM; IC50 [21]: > 10 µM

Source: ChEMBL document CHEMBL4190286, “Modulating the Serotonin Receptor Spectrum of Pulicatin Natural Products” (J Nat Prod, 2017)
